Laboratory results from US8383128B2, “Method of protecting plant(s) and a process thereof” (priority 2008, dated 2013).

System: Helicoverpa armigera larvae (third instar)
Assay: Bioassay of meroterpenoid using H. armigera larvae (cotton leaf dip feeding)
Format: in vivo
Details: for Mortality (%) / Survival (%): treated cotton leaves, recorded up to 6 days
From the text: The cotton Bollworm, Helicoverpa armigera is considered as one of the major threats to present day intensive agriculture. […] Cotton leaves were surface sterilized with 0.5% sodium hypochlorite, rinsed in sterile water and shade dried. The leaves were dipped in respective concentration of the insecticide for 30 seconds and then they were drained and dried at room temperature. The turgidity was maintained by surrounding the petiole with cotton wool saturated with water. The petioles of the leaves with cotton swab were kept immersed in water and were used control. The entire setup was kept enclosed in mylar film cage and Helicoverpa armigera larvae (third instar) of 30-40 milligrams weight were allowed to feed. Mortality rate was recorded at 24 hours intervals up to 6 days.

COc1ccc(-c2cc3c(c(=O)o2)C[C@@]2(O)[C@@]4(C)C(=O)[C@@]5(OC)C(=O)O[C@]4(CC[C@@]2(C)O3)C5(C)C)cc1 [Terreulactone A, terreulactone A]
Mortality (%) (2.5 μg terreulactone A): 52.5% | Survival (%) (2.5 μg terreulactone A): 47.5% | Mortality (%) (5.0 μg terreulactone A): 62.5% | Survival (%) (5.0 μg terreulactone A): 37.5% | Mortality (%) (10 μg terreulactone A): 82.5% | Survival (%) (10 μg terreulactone A): 17.5% | mortality rate of the larval pests (in words) (larval pests fed on treated plant or plant parts): increased the mortality rate
